EC50 data for 3 compounds are collected here from US12097241B2, “Methods of treating kidney failure, and/or improving or stablizing renal function using modified relaxin polypeptides” (BRISTOL-MYERS SQUIBB COMPANY, priority 2017, dated 2024).

Molecules are shown by their SMILES.

This test deals with T1, human RXFP1 receptor (Homo sapiens, UniProt Q9HBX9).
T1 construct: expressed in transfected cells
T1 sequence (Q9HBX9 1-757): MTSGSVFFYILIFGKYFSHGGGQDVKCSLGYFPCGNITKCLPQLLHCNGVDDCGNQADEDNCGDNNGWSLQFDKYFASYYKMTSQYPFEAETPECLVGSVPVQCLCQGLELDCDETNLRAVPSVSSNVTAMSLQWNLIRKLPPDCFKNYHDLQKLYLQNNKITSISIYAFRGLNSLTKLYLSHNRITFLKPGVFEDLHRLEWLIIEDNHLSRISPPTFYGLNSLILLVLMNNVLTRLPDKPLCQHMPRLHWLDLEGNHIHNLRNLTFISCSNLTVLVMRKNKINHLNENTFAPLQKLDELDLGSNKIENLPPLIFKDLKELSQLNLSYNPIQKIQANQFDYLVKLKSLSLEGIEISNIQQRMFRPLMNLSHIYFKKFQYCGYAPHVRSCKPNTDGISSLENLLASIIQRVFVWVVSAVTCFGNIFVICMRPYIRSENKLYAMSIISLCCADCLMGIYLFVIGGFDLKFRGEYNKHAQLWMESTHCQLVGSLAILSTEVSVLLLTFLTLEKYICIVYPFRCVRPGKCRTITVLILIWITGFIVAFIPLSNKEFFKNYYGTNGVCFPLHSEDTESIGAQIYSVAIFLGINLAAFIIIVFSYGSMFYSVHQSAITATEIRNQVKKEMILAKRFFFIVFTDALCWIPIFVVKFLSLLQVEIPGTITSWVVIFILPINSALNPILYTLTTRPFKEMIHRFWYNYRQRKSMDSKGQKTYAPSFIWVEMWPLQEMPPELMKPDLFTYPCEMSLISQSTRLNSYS
The test is described as follows: Intracellular cAMP accumulation assay. The test is classed as cell-based.
Description: The intracellular cAMP accumulation assay described herein was used to assess relaxin bioactivity and potency.
CHO-K1 cells (ATCC; Cat. #CRL-9618) stably expressing the human RXFP1 receptor (locus number LOC59350) (10,000/well) were plated into 96-well plates and cultured overnight at 37° C. and 5% CO2. On the following day, the medium was removed from the wells and the cells were stimulated with the addition of ligand (relaxin polypeptide) in 50 uL buffer (1×HBSS, 5 mM HEPES (7.2), 0.5 mM IBMX, 0.1% BSA); incubation was for 10 min at 37° C. Unstimulated cells were utilized as reference controls. Reactions were terminated and cellular cAMP levels were measured using the Homogeneous Time Resolved Fluorescence (HTRF) Dynamic 2 cAMP kit (CisBio, #62AM4PEC) according to the manufacturer's protocol. Plates were analyzed using an EnVision 2104 Multilablel Reader (PerkinElmer). Signal was expressed in terms of the ratio of fluorescence intensity @ 665 nm/fluorescence intensity @620 nm×10,000. The concentration of cAMP in the sample was determined by comparison with standard curves generated from known concentrations of cAMP. The potency of each relaxin was determined using a ten-point concentration response curves which was performed in duplicate. The data were analyzed using Microsoft Excel, Version 2013 Xlfit software. Effective concentration 50 (EC50) values, the point at which the response was one-half maximal, were calculated using a four-parameter logistic equation that allowed for a variable-slope (Table 3).
Broadly, the EC50 is the midpoint of the concentration-response curve. A higher EC50 goes with a less potent agent. On to `CCCCCCCCCCCCCCC(=O)NCC(=O)NCC(=O)NCC(=O)N[C@@H](CCC(=O)O)C(=O)N[C@@H](CCC(=O)O)C(=O)N1CCC[C@H]1C(=O)N[C@@H](CCC(=O)O)C(=O)N[C@@H](CCC(=O)O)C(=O)N[C@@H](CCC(=O)O)C(=O)N[C@@H](CCC(=O)O)C(=O)N1CCC[C@H]1C(=O)N[C@@H](CCC(=O)O)C(=O)N[C@@H](CCC(=O)O)C(=O)N[C@@H](CCC(=O)O)C(=O)N[C@@H](CCC(=O)O)C(=O)N1CCC[C@H]1C(=O)N[C@@H](CCC(=O)O)C(=O)N[C@@H](CCC(=O)O)C(=O)N[C@@H](CCC(=O)O)C(=O)N[C@@H](CCC(=O)O)C(=O)NCCON=C(C)c1ccc(C[C@H](N)C(=O)N[C@@H](CC(C)C)C(=O)N[C@@H](Cc2ccc(O)cc2)C(=O)N[C@@H](CO)C(=O)N[C@@H](C)C(=O)N[C@@H](CC(C)C)C(=O)N[C@@H](C)C(=O)N[C@@H](CC(N)=O)C(=O)N[C@@H](CCCCN)C(=O)N[C@H]2CSSC[C@@H]3NC(=O)CNC(=O)[C@H](C(C)C)NC(=O)[C@H](Cc4c[nH]cn4)NC(=O)[C@H](CSSC[C@H](NC(=O)[C@H](CC(C)C)NC(=O)[C@H](CCCCN)NC(=O)[C@@H](NC(=O)[C@@H](NC(=O)[C@H](CCC(=O)O)NC(=O)[C@H](CCC(=O)O)NC(=O)[C@H](CCSC)NC(=O)[C@H](Cc4c[nH]c5ccccc45)NC(=O)[C@H](CO)NC(=O)[C@H](C)N)C(C)C)[C@@H](C)CC)C(=O)NCC(=O)N[C@@H](CCCNC(=N)N)C(=O)N[C@@H](CCC(=O)O)C(=O)N[C@@H](CC(C)C)C(=O)N[C@@H](C(C)C)C(=O)N[C@@H](CCCNC(=N)N)C(=O)N[C@@H](C)C(=O)N[C@@H](CCC(N)=O)C(=O)N[C@@H]([C@@H](C)CC)C(=O)N[C@@H](C)C(=O)N[C@@H]([C@@H](C)CC)C(=O)N[C@H](C(=O)NCC(=O)N[C@@H](CCSC)C(=O)N[C@@H](CO)C(=O)N[C@H](C(=O)N[C@@H](Cc4c[nH]c5ccccc45)C(=O)N[C@@H](CO)C(=O)O)[C@@H](C)O)CSSC[C@@H](C(=O)O)NC(=O)[C@H](Cc4ccccc4)NC(=O)[C@H](CCCNC(=N)N)NC(=O)[C@H](C)NC(=O)[C@H](CC(C)C)NC(=O)[C@H](CO)NC(=O)[C@H](CCCNC(=N)N)NC(=O)[C@H](CCCCN)NC(=O)[C@H]([C@@H](C)O)NC3=O)NC2=O)cc1`, for which the midpoint of the response, the EC50, lay at 0.16 nM.

Compound `CCCCCCCCCCCCCCC(=O)N[C@@H](CCC(=O)N[C@@H](CCC(=O)O)C(=O)N[C@@H](CCC(=O)O)C(=O)N[C@@H](CCC(=O)O)C(=O)N[C@@H](CCC(=O)O)C(=O)N[C@@H](CCC(=O)O)C(=O)N[C@@H](CCC(=O)O)C(=O)NCCON=C(C)c1ccc(C[C@H](N)C(=O)N[C@@H](CC(C)C)C(=O)N[C@@H](Cc2ccc(O)cc2)C(=O)N[C@@H](CO)C(=O)N[C@@H](C)C(=O)N[C@@H](CC(C)C)C(=O)N[C@@H](C)C(=O)N[C@@H](CC(N)=O)C(=O)N[C@@H](CCCCN)C(=O)N[C@H]2CSSC[C@@H]3NC(=O)CNC(=O)[C@H](C(C)C)NC(=O)[C@H](Cc4c[nH]cn4)NC(=O)[C@H](CSSC[C@H](NC(=O)[C@H](CC(C)C)NC(=O)[C@H](CCCCN)NC(=O)[C@@H](NC(=O)[C@@H](NC(=O)[C@H](CCC(=O)O)NC(=O)[C@H](CCC(=O)O)NC(=O)[C@H](CCSC)NC(=O)[C@H](Cc4c[nH]c5ccccc45)NC(=O)[C@H](CO)NC(=O)[C@H](C)N)C(C)C)[C@@H](C)CC)C(=O)NCC(=O)N[C@@H](CCCNC(=N)N)C(=O)N[C@@H](CCC(=O)O)C(=O)N[C@@H](CC(C)C)C(=O)N[C@@H](C(C)C)C(=O)N[C@@H](CCCNC(=N)N)C(=O)N[C@@H](C)C(=O)N[C@@H](CCC(N)=O)C(=O)N[C@@H]([C@@H](C)CC)C(=O)N[C@@H](C)C(=O)N[C@@H]([C@@H](C)CC)C(=O)N[C@H](C(=O)NCC(=O)N[C@@H](CCSC)C(=O)N[C@@H](CO)C(=O)N[C@H](C(=O)N[C@@H](Cc4c[nH]c5ccccc45)C(=O)N[C@@H](CO)C(=O)O)[C@@H](C)O)CSSC[C@@H](C(=O)O)NC(=O)[C@H](Cc4ccccc4)NC(=O)[C@H](CCCNC(=N)N)NC(=O)[C@H](C)NC(=O)[C@H](CC(C)C)NC(=O)[C@H](CO)NC(=O)[C@H](CCCNC(=N)N)NC(=O)[C@H](CCCCN)NC(=O)[C@H]([C@@H](C)O)NC3=O)NC2=O)cc1)C(=O)O` [AQ1-EEEEEE-Glu^γ-C14-CH3] registered an EC50 of 0.38 nM.

Compound `CCCCCCCCCCCCCCC(=O)N[C@@H](CCC(=O)N[C@@H](CCC(=O)O)C(=O)N[C@@H](CCC(=O)O)C(=O)N[C@@H](CCC(=O)O)C(=O)N[C@@H](CCC(=O)O)C(=O)N1CCC[C@H]1C(=O)N[C@@H](CCC(=O)O)C(=O)N[C@@H](CCC(=O)O)C(=O)N[C@@H](CCC(=O)O)C(=O)N[C@@H](CCC(=O)O)C(=O)N1CCC[C@H]1C(=O)N[C@@H](CCC(=O)O)C(=O)N[C@@H](CCC(=O)O)C(=O)N[C@@H](CCC(=O)O)C(=O)N[C@@H](CCC(=O)O)C(=O)N1CCC[C@H]1C(=O)N[C@@H](CCC(=O)O)C(=O)N[C@@H](CCC(=O)O)C(=O)N[C@@H](CCC(=O)O)C(=O)N[C@@H](CCC(=O)O)C(=O)NCCON=C(C)c1ccc(C[C@H](N)C(=O)N[C@@H](CC(C)C)C(=O)N[C@@H](Cc2ccc(O)cc2)C(=O)N[C@@H](CO)C(=O)N[C@@H](C)C(=O)N[C@@H](CC(C)C)C(=O)N[C@@H](C)C(=O)N[C@@H](CC(N)=O)C(=O)N[C@@H](CCCCN)C(=O)N[C@H]2CSSC[C@@H]3NC(=O)CNC(=O)[C@H](C(C)C)NC(=O)[C@H](Cc4c[nH]cn4)NC(=O)[C@H](CSSC[C@H](NC(=O)[C@H](CC(C)C)NC(=O)[C@H](CCCCN)NC(=O)[C@@H](NC(=O)[C@@H](NC(=O)[C@H](CCC(=O)O)NC(=O)[C@H](CCC(=O)O)NC(=O)[C@H](CCSC)NC(=O)[C@H](Cc4c[nH]c5ccccc45)NC(=O)[C@H](CO)NC(=O)[C@H](C)N)C(C)C)[C@@H](C)CC)C(=O)NCC(=O)N[C@@H](CCCNC(=N)N)C(=O)N[C@@H](CCC(=O)O)C(=O)N[C@@H](CC(C)C)C(=O)N[C@@H](C(C)C)C(=O)N[C@@H](CCCNC(=N)N)C(=O)N[C@@H](C)C(=O)N[C@@H](CCC(N)=O)C(=O)N[C@@H]([C@@H](C)CC)C(=O)N[C@@H](C)C(=O)N[C@@H]([C@@H](C)CC)C(=O)N[C@H](C(=O)NCC(=O)N[C@@H](CCSC)C(=O)N[C@@H](CO)C(=O)N[C@H](C(=O)N[C@@H](Cc4c[nH]c5ccccc45)C(=O)N[C@@H](CO)C(=O)O)[C@@H](C)O)CSSC[C@@H](C(=O)O)NC(=O)[C@H](Cc4ccccc4)NC(=O)[C@H](CCCNC(=N)N)NC(=O)[C@H](C)NC(=O)[C@H](CC(C)C)NC(=O)[C@H](CO)NC(=O)[C@H](CCCNC(=N)N)NC(=O)[C@H](CCCCN)NC(=O)[C@H]([C@@H](C)O)NC3=O)NC2=O)cc1)C(=O)O` [AQ1-EEEEPEEEEPEEEEPEEEE-Glu^γ-C14-CH3] yielded an EC50 of 0.33 nM.
